Patent US20230103631A1, “PEPTIDES AS SELECTIVE GIP RECEPTOR AGONISTS” (Sanofi, priority 2020, published 2023)
*1 amine or outer side, *2 acyl side, *3 side chain or, on linkers, in order; H or OH if unused. Where a SMILES comes first, the peptide text is derived from it. Side-chain parts run from the residue outwards. [ ]: non-standard residue; d: D form. The star is where a group is joined. C20 diacid = O=C(O)CCCCCCCCCCCCCCCCCCC(=O)*; C18 diacid = O=C(O)CCCCCCCCCCCCCCCCC(=O)*; γGlu = O=C(O)[C@H](CCC(=O)[*:2])N[*:1]; NMeY = CN[C@@H](Cc1ccc(O)cc1)C(=O)O; AEEA = NCCOCCOCC(=O)O; Aib = CC(C)(N)C(=O)O

Tests used:
[1] = target: human GLP-1 receptor (hGLP-1R) (Homo sapiens, UniProt P43220); test: cAMP HTRF assay, HEK-293 cell line over-expressing human GLP-1 receptor; assay type: cell-based; conditions: HEK-293, cAMP, 0% HSA
Chain of human GLP-1 receptor (hGLP-1R) (P43220 24-463): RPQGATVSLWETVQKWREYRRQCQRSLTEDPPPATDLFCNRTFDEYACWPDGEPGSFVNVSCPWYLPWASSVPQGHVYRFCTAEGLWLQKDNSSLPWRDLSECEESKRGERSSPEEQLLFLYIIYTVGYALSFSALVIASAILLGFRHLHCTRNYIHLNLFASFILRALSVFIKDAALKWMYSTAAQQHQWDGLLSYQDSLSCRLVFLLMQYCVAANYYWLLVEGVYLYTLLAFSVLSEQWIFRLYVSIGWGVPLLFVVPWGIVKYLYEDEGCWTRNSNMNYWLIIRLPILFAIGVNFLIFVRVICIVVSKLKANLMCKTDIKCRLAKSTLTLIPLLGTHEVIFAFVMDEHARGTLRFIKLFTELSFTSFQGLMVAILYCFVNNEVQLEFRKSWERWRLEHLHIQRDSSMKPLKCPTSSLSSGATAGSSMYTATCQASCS
How it was run: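 Thawed HEK-293 cells over-expressing human GLP-1R (5000 cells/well) in HBSS/20 mM HEPES buffer, with 0.1% HSA where stated, incubated with compound for 30 min at room temperature. Generated cAMP quantified by HTRF.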

[2] = Dynamic light scattering (DLS) for the assessment of physical stability; assay type: physicochemical; conditions: DLS buffer system A
Text: A monochromatic and coherent light beam (laser) is used to illuminate the liquid sample. Dynamic Light Scattering (DLS) measures light scattered from particles (1 nm≤radius≤1 μm) that undergo Brownian motion. This motion is induced by collisions between the particles and solvent molecules, that themselves are moving due to their thermal energy. The diffusional motion of the particles results in temporal fluctuations of the scattered light (R. Pecora, Dynamic Light Scattering: Applications of Photon Correlation Spectroscopy, Plenum Press, 1985).
The scattered light intensity fluctuations are recorded and transformed into an autocorrelation function. By fitting the autocorrelation curve to an exponential function, the diffusion coefficient D of the particles in solution can be derived. The diffusion coefficient is then used to calculate the hydrodynamic radius Rh (or apparent Stokes radius) through the Stokes-Einstein equation assuming spherical particles. This calculation is defined in ISO 13321 and ISO 22412 (International Standard ISO13321 Methods for Determination of Particle Size Distribution Part 8: Photon Correlation Spectroscopy, International Organisation for Standardisation (ISO) 1996; International Standard ISO22412 Particle Size Analysis—Dynamic Light Scattering, International Organisation for Standardisation, 2008).
In case of polydisperse samples, the autocorrelation function is the sum of the exponential decays corresponding to each of the species. The temporal fluctuations of the scattered light can then be used to determine the size distribution profile of the particle fraction or family. The first order result is an intensity distribution of scattered light as a function of the particle size. The intensity distribution is naturally weighted according to the scattering intensity of each particle fraction or family. For biological materials or polymers, the particle scattering intensity is proportional to the square of the molecular weight. Thus, small amount of aggregates/agglomerates or presence or a larger particle species can dominate the intensity distribution. However, this distribution can be used as a sensitive detector for the presence of large material in the sample.
The DLS technique produces distributions with inherent peak broadening. The polydispersity index % Pd is a measure of the width of the particle size distribution and is calculated by standard methods described in ISO13321 and ISO22412 [International Standard ISO13321 Methods for Determination of Particle Size Distribution Part 8: Photon Correlation Spectroscopy, International Organisation for Standardisation (ISO) 1996; International Standard ISO22412 Particle Size Analysis—Dynamic Light Scattering, International Organisation for Standardisation (ISO) 2008].
Solutions from solid samples were prepared in buffer systems (see below) with a target concentration of 300 μM compound based on the previously determined % purity.
DLS buffer system A) 20 mM phosphate buffer pH 7.4
DLS buffer system B) 8 mM phosphate buffer pH 7.4, 14 mg/ml propylene glycol, 5.5 mg/ml phenol
DLS buffer system C) 100 mM phosphate buffer pH 7.4, 2.7 mg/ml m-cresol Solutions were filtered through 0.22 μm pore size and filled into sterilized glass containers under laminar flow conditions. For every peptide solution, the apparent hydrodynamic radius (Rh), the corresponding Scattering Intensity (I), and the Mass Contribution (M) were determined as an average over 3-6 replicates from the intensity distribution of the scattered light averaging only high-quality measurements. Relative standard deviations (RSD) for these parameters were calculated from the same number of replicates. […]

[3] = target: T1, human GIP receptor (hGIPR) (Homo sapiens, UniProt P48546); test: Binding assay, displacement of [125I]GIP from HEK-293 membranes expressing GIPR; conditions: [125I]GIP displacement
T1 sequence (P48546 22-466): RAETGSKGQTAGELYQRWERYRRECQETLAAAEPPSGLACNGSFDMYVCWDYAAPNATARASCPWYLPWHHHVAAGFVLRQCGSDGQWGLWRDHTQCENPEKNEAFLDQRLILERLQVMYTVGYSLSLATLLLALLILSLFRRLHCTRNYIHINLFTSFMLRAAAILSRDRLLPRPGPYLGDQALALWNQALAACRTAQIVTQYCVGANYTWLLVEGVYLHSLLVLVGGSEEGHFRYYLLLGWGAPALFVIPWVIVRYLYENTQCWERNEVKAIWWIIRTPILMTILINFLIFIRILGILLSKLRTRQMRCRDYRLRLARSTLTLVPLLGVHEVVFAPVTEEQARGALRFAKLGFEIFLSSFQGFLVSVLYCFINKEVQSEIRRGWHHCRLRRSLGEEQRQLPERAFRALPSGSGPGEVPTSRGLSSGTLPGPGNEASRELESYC
Procedure: HEK-293 cells recombinantly over-expressing GIPR or GLP-1R were grown to 50% confluency, washed with warm 1×PBS (Gibco) and detached in HEPES/EDTA-buffer (100 mM HEPES pH 7.5, 5 mM EDTA). Cells were harvested by centrifugation at 4° C. and 3000×g and the pellets were stored at −80° C. until further processing.
After thawing on ice, pellets were resuspended in HEPES/EDTA-buffer and homogenized on ice for 1 min using Ultra-Turray T25. After subsequent sonification the cell debris was removed by centrifugation at 1000×g and 4° C. Supernatants were then ultra-centrifuged at 100000×g and 4° C. under vacuum for 30 min. Pellets were resuspended in HEPES/EDTA/NaCl-buffer (20 mM HEPES, 1 mM EDTA, 150 mM NaCl; add 1 Complete Mini Protease inhibitor cocktail to 10 ml buffer) and protein content was determined via BCA-Protein assay.

Row | Structure (SMILES) | EC50 [1] | I and SD (Scattering Intensity) ([2]; 0 weeks) | M and SD (Mass Contribution) ([2]; 0 weeks) | apparent Rh and SD ([2]; 0 weeks) | I and SD (Scattering Intensity) ([2]; 4 weeks storage at 40° C.) | M and SD (Mass Contribution) ([2]; 4 weeks storage at 40° C.) | apparent Rh and SD ([2]; 4 weeks storage at 40° C.) | IC50 [3]
1 | CC[C@H](C)[C@H](NC(=O)[C@H](CCCNC(=N)N)NC(=O)[C@H](CC(=O)O)NC(=O)[C@H](CCCCNC(=O)COCCOCCNC(=O)COCCOCCNC(=O)CC[C@H](NC(=O)CCCCCCCCCCCCCCCCC(=O)O)C(=O)O)NC(=O)C(C)(C)NC(=O)[C@@H](NC(=O)[C@H](CO)NC(=O)[C@H](CC(C)C)NC(=O)[C@H](CC(=O)O)NC(=O)[C@H](CO)NC(=O)[C@@H](NC(=O)[C@H](Cc1ccccc1)NC(=O)[C@@H](NC(=O)CNC(=O)[C@H](CCC(=O)O)NC(=O)C(C)(C)NC(=O)[C@H](Cc1ccc(O)cc1)NC)[C@@H](C)O)[C@@H](C)CC)[C@@H](C)CC)C(=O)N[C@@H](Cc1c[nH]cn1)C(=O)N[C@@H](CCC(N)=O)C(=O)NC(C)(C)C(=O)N[C@@H](CCC(=O)O)C(=O)N[C@@H](Cc1ccccc1)C(=O)N[C@H](C(=O)N[C@@H](CCC(=O)O)C(=O)N[C@@H](Cc1c[nH]c2ccccc12)C(=O)N[C@@H](CC(C)C)C(=O)N[C@@H](CC(C)C)C(=O)N[C@@H](C)C(=O)N[C@@H](CCC(N)=O)C(=O)NCC(=O)N1CCC[C@H]1C(=O)N[C@@H](CO)C(=O)N[C@@H](CO)C(=O)NCC(=O)N[C@@H](C)C(=O)N1CCC[C@H]1C(=O)N1CCC[C@H]1C(=O)N1CCC[C@H]1C(=O)N[C@@H](CO)C(N)=O)[C@@H](C)CC [SEQ ID NO: 8, MeHN-Y-Aib-E-G-T-F-I-S-D-I-S-I-Aib-K[{AEEA}2-gGlu-C180H]-D-R-I-H-Q-Aib-E-F--E-W-I-L-A-Q-G-P-S-S-G-A-P-P-P-S-NH2] (H-[NMeY][Aib]EGTFISDLSI[Aib]K([AEEA-AEEA-γGlu-C18 diacid])DRIHQ[Aib]EFIEWLLAQGPSSGAPPPS-NH2) | > 10000 pM | 73 ± 3% | 100 ± 0% | 2.06 ± 0.03 nm | 78 ± 9% | 100 ± 0% | 2.00 ± 0.07 nm | 200 pM
2 | CC[C@H](C)[C@H](NC(=O)[C@H](Cc1ccccc1)NC(=O)[C@H](CCC(=O)O)NC(=O)[C@H](CCC(=O)O)NC(=O)[C@H](CCC(N)=O)NC(=O)[C@H](Cc1c[nH]cn1)NC(=O)[C@@H](NC(=O)[C@H](CCCNC(=N)N)NC(=O)[C@H](CC(=O)O)NC(=O)[C@H](CCCCNC(=O)COCCOCCNC(=O)COCCOCCNC(=O)CC[C@H](NC(=O)CCCCCCCCCCCCCCCCCCC(=O)O)C(=O)O)NC(=O)C(C)(C)NC(=O)[C@@H](NC(=O)[C@H](CO)NC(=O)[C@H](CC(C)C)NC(=O)[C@H](CC(=O)O)NC(=O)[C@H](CO)NC(=O)[C@@H](NC(=O)[C@H](Cc1ccccc1)NC(=O)[C@@H](NC(=O)CNC(=O)[C@H](CCC(=O)O)NC(=O)C(C)(C)NC(=O)[C@@H](N)Cc1ccc(O)cc1)[C@@H](C)O)[C@@H](C)CC)[C@@H](C)CC)[C@@H](C)CC)C(=O)N[C@@H](CCC(=O)O)C(=O)N[C@@H](Cc1c[nH]c2ccccc12)C(=O)N[C@@H](CC(C)C)C(=O)N[C@@H](CC(C)C)C(=O)N[C@@H](C)C(=O)N[C@@H](CCC(N)=O)C(=O)NCC(=O)N1CCC[C@H]1C(=O)N[C@@H](CO)C(=O)N[C@@H](CO)C(=O)NCC(=O)N[C@@H](C)C(=O)N1CCC[C@H]1C(=O)N1CCC[C@H]1C(=O)N1CCC[C@H]1C(=O)N[C@@H](CO)C(N)=O [SEQ ID NO: 10, H2N-Y-Aib-E-G-T-F-I-S-D-I-S-I-Aib-K[{AEEA}2-gGlu-C20OH]-DRIHQEEFIEWILAQGPSSGAPPPS-NH2] (H-Y[Aib]EGTFISDLSI[Aib]K([AEEA-AEEA-γGlu-C20 diacid])DRIHQEEFIEWLLAQGPSSGAPPPS-NH2) | > 10000 pM | 60 ± 3% | 100 ± 0% | 1.97 ± 0.03 nm | 75 ± 3% | 100 ± 0% | 1.91 ± 0.04 nm | 300 pM
3 | CC[C@H](C)[C@H](NC(=O)[C@H](Cc1ccccc1)NC(=O)[C@H](CCC(=O)O)NC(=O)[C@H](CCC(=O)O)NC(=O)[C@H](CCC(N)=O)NC(=O)[C@H](Cc1c[nH]cn1)NC(=O)[C@@H](NC(=O)[C@H](CCCNC(=N)N)NC(=O)[C@H](CC(=O)O)NC(=O)[C@H](CCCCNC(=O)COCCOCCNC(=O)COCCOCCNC(=O)CC[C@H](NC(=O)CCCCCCCCCCCCCCCCC(=O)O)C(=O)O)NC(=O)C(C)(C)NC(=O)[C@@H](NC(=O)[C@H](CO)NC(=O)[C@H](CC(C)C)NC(=O)[C@H](CC(=O)O)NC(=O)[C@H](CO)NC(=O)[C@@H](NC(=O)[C@H](Cc1ccccc1)NC(=O)[C@@H](NC(=O)CNC(=O)[C@H](CCC(=O)O)NC(=O)C(C)(C)NC(=O)[C@@H](N)Cc1ccc(O)cc1)[C@@H](C)O)[C@@H](C)CC)[C@@H](C)CC)[C@@H](C)CC)C(=O)N[C@@H](CCC(=O)O)C(=O)N[C@@H](Cc1c[nH]c2ccccc12)C(=O)N[C@@H](CC(C)C)C(=O)N[C@@H](CC(C)C)C(=O)N[C@@H](C)C(=O)N[C@@H](CCC(N)=O)C(=O)NCC(=O)N1CCC[C@H]1C(=O)N[C@@H](CO)C(=O)N[C@@H](CO)C(=O)NCC(=O)N[C@@H](C)C(=O)N1CCC[C@H]1C(=O)N1CCC[C@H]1C(=O)N1CCC[C@H]1C(=O)N[C@@H](CO)C(=O)O [SEQ ID NO: 11, H2N-Y-Aib-E-G-T-F-I-S-D-I-S-I-Aib-K[{AEEA}2-gGlu-C18OH]-DRIHQEEFIEWILAQGPSSGAPPPS-OH] (H-Y[Aib]EGTFISDLSI[Aib]K([AEEA-AEEA-γGlu-C18 diacid])DRIHQEEFIEWLLAQGPSSGAPPPS-OH) | > 10000 pM | 96 ± 1% | 100 ± 0% | 1.82 ± 0.04 nm | 85 ± 2% | 100 ± 0% | 1.83 ± 0.05 nm | 500 pM
